Assay results as given in US20060063759A1, “Tricyclic steroid hormone nuclear receptor modulators” (priority 2002, published 2006).

Experiments:
[1] = target: T1, human MR (Homo sapiens, UniProt P08235); assay: Mineralocorticoid Receptor Binding Assay ([3H]-aldosterone); details: [3H]-aldosterone binding, human MR expressed in Sf9 cells; read-out: MR Ki
T1 construct: The full length human MR gene is cloned from a human kidney or human brain cDNA library; His tag from the pAcHLT vector (own knowledge); made in house; host or cells: Sf9 insect cells (baculovirus, pAcHLT transfer vector)
T1 sequence (P08235 1-984): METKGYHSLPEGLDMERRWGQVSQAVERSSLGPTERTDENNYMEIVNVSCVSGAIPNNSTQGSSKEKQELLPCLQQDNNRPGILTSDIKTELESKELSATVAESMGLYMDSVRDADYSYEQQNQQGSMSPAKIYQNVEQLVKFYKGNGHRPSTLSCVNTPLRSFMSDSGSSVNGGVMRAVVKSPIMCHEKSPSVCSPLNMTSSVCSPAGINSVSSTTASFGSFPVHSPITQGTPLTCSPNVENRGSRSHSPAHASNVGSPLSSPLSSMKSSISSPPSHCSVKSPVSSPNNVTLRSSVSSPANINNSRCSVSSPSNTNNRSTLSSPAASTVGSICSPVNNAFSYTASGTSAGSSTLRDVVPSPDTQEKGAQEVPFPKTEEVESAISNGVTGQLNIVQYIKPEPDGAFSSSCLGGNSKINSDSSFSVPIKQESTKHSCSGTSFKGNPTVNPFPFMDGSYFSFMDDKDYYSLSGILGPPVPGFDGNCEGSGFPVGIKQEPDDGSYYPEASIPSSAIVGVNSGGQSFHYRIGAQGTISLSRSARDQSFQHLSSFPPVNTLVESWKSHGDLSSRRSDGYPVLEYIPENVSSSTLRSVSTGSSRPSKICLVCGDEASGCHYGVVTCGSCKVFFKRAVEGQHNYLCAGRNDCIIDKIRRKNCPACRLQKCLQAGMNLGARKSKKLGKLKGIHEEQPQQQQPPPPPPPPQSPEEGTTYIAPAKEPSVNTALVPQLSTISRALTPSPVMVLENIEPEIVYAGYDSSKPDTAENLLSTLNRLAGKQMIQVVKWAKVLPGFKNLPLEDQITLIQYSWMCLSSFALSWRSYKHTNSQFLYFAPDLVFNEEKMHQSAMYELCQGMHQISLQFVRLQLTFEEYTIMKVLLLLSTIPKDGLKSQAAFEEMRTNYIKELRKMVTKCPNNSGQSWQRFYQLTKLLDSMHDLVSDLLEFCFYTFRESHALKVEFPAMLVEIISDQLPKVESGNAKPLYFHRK
Procedure, shortened: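 Lysate supernatant of Sf9 cells expressing full-length human MR (20-25 μg protein) was incubated with 0.5 nM [3H]-aldosterone and test compound in molybdate/Tris/phosphate/glycerol buffer, pH 7.5, ~16 h at 4 °C. Bound ligand was filtered and counted by scintillation; IC50 is the concentration halving [3H]-aldosterone binding.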

[2] = target: T2, glucocorticoid receptor (Homo sapiens, UniProt P04150); assay: Glucocorticoid Receptor Binding Assay ([3H]-dexamethasone, A549 cell extract); details: [3H]-dexamethasone binding, read-out: GR Ki
T2 construct: containing 50-200 ug of A549 cell extract and 1.86 nM [^3H]-dexamethasone; host or cells: A549 human lung epithelial cells (sonicated cell extract)
T2 sequence (P04150 1-777): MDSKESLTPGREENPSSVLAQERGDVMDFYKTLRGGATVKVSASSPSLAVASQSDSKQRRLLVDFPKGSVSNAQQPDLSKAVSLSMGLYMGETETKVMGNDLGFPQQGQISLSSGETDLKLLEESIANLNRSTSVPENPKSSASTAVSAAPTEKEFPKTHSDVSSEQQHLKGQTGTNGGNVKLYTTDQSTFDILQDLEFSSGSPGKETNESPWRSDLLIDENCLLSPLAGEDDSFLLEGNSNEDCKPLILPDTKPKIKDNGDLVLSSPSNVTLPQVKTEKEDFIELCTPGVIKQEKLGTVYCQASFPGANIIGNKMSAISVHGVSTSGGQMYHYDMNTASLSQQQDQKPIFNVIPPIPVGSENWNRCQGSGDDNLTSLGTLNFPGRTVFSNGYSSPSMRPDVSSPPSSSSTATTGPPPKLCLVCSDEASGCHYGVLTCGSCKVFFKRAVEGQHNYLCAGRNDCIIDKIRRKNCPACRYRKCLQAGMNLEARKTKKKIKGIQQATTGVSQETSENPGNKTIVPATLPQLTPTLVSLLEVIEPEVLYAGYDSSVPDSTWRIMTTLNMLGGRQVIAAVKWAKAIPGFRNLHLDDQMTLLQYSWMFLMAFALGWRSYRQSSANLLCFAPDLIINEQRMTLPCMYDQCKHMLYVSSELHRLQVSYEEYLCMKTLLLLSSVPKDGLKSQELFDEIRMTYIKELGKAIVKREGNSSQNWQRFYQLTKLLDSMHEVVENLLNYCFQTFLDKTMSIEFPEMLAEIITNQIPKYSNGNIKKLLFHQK
Procedure, shortened: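 A549 cell extract (50–200 ug) incubated with 1.86 nM [3H]-dexamethasone and test compound for 16 h at 4 °C in Tris-HCl pH 7.2 buffer with glycerol and molybdate. Unbound radioligand removed by dextran-coated charcoal, then supernatant bound counts measured by scintillation.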

Compound	Ki [1] [µM]	Ki [2] [µM]
C(=C1c2ccccc2CCc2ccccc21)c1cccc2[nH]ccc12 [Example 220, 4-(10,11-Dihydro-dibenzo[a,d]cyclohepten-5-ylidenemethyl)-1H-indole]	< 0.5	< 10
O=c1[nH]c2cc(/C=C3/c4ccccc4CCc4c(Cl)cccc43)ccc2o1 [Example 221(a)]	< 0.5	< 0.5
O=c1[nH]c2cc(/C=C3\c4ccccc4CCc4c(Cl)cccc43)ccc2o1 [Example 221(b)]	< 0.5	< 0.5
O=c1[nH]c2cc(C=C3c4ccccc4CCc4cc(Cl)ccc43)ccc2o1 [Example 222(a), 5-(2-Chloro-10,11-dihydro-dibenzo[a,d]cyclohepten-5-ylidenemethyl)-3H-benzooxazol-2-one]	< 0.5	< 0.5
O=c1[nH]c2ccc(C=C3c4ccccc4CCc4ccccc43)cc2[nH]1 [Example 223, 5-(10,11-Dihydro-dibenzo[a,d]cyclohepten-5-ylidenemethyl)-l,3-dihydro-benzoimidazol-2-one]	< 0.5	< 10
O=C1Cc2c(C=C3c4ccccc4CCc4ccccc43)cccc2N1 [Example 224, 4-(10,11-Dihydro-dibenzo[a,d]cyclohepten-5-ylidenemethyl)-1,3-dihydro-indol-2-one]	< 0.5	< 0.5
C(=C1c2ccccc2CCc2ccccc21)c1ccccc1-c1cnccn1 [Example 225, 2-[2-(10,11-Dihydro-dibenzo[a,d]cyclohepten-5-ylidenemethyl)-phenyl]-pyrazine]	< 0.5	< 10
C(=C1c2ccccc2CCc2ccccc21)c1ccccc1-c1ccccn1 [Example 227, 2-[2-(10,11-Dihydro-dibenzo[a,d]cyclohepten-5-ylidenemethyl)-phenyl]-pyridine]	< 0.5	< 1
C(=C1c2ccccc2CCc2ccccc21)c1ccccc1-c1cccnc1 [Example 228, 3-[2-(10,11-Dihydro-dibenzo[a,d]cyclohepten-5-ylidenemethyl)-phenyl]-pyridine]	< 0.5	< 1
C(=C1c2ccccc2CCc2ccccc21)c1cccc(-c2ccn[nH]2)c1 [Example 229, 5-[3-(10,11-Dihydro-dibenzo[a,d]cyclohepten-5-ylidenemethyl)-phenyl]-1H-pyrazole]	< 0.5	< 1
Nc1cccc(C=C2c3ccccc3CCc3ccccc32)n1 [Example 230, 6-(10,11-Dihydro-dibenzo[a,d]cyclohepten-5-ylidenemethyl)-pyridin-2-ylamine]	< 1	< 10
CS(=O)(=O)Nc1cccc(C=C2c3ccccc3CCc3ccccc32)n1 [Example 231, N-[6-(10,11-Dihydro-dibenzo[a,d]cyclohepten-5-ylidenemethyl)-pyridin-2-yl]-methanesulfonamide]	< 0.5	< 0.5
CS(=O)(=O)Nc1cncc(C=C2c3ccccc3CCc3ccccc32)n1 [Example 233, N-[6-(10,11-Dihydro-dibenzo[a,d]cyclohepten-5-ylidenemethyl)-pyrazin-2-yl]-methanesulfonamide]	< 0.5	< 10
Oc1cncc(C=C2c3ccccc3CCc3ccccc32)c1 [Example 236, 5-(10,11-Dihydro-dibenzo[a,d]cyclohepten-5-ylidenemethyl)pyridin-3-ol]	< 0.5	< 0.5
C(=C1c2ccccc2CCc2ccccc21)c1cn[nH]c1 [Example 237, 4-(10,11-Dihydro-dibenzo[a,d]cyclohepten-5-ylidenemethyl)-1H-pyrazole]	< 0.5	< 10
CS(=O)(=O)Nc1cccc(/C=C2\c3ccccc3CCc3cccnc32)c1 [Example 249, (E)-N-[3-(5,6-Dihydro-benzo[5,6]cyclohepta[1,2-b]pyridin-11-ylidenemethyl)-phenyl]-methanesulfonamide]	< 0.5	< 0.5
CS(=O)(=O)Nc1cccc(/C=C2/c3ccccc3CCc3ncccc32)c1 [Example 251, (Z)-N-[3-(10,11-Dihydro-benzo[4,5]cyclohepta[1,2-b]pyridin-5-ylidenemethyl)-phenyl]-methanesulfonamide]	< 0.5	< 0.5
CS(=O)(=O)Nc1cccc(/C=C2\c3ccccc3CCc3ncccc32)c1 [Example 253, (E)-N-[3-(10,11-Dihydro-benzo[4,5]cyclohepta[1,2-b]pyridin-5-ylidenemethyl)-phenyl]-methanesulfonamide]	< 0.5	< 0.5
Oc1cccc(/C=C2\c3ccccc3CCc3ncccc32)c1 [Example 254, (E)-3-(10,11-Dihydro-benzo[4,5]cyclohepta[1,2-b]pyridin-5-ylidenemethyl)-phenol]	< 0.5	< 0.5
CS(=O)(=O)Nc1cccc(C=C2c3ccccc3C3C(c4ccccc42)C3(F)F)c1 (stereo not drawn) [Example 255, N-[3-(8,8-Difluoro-4-ylidinemethyl-2,3,5,6-dibenzobicyclo[5.1.0]octane)-phenyl]-methanesulfonamide]	< 0.5	< 0.5
Oc1cccc(C=C2c3ccccc3C3C(c4ccccc42)C3(F)F)c1 (stereo not drawn) [Example 256]	< 0.5	< 1
Oc1cccc(C=C2c3ccccc3C3CC3c3ccccc32)c1 (stereo not drawn) [Example 258]	< 0.5	< 0.5
CS(=O)(=O)Nc1cccc(/C=C2\c3ccccc3NC(=O)c3ccccc32)c1 [Example 261, N-[3-(6-Oxo-5,6-dihydro-dibenzo[b,e]azepin-11-ylidenemethyl)-phenyl]-methanesulfonamide]	< 0.5	< 0.5
CS(=O)(=O)Nc1cccc(/C=C2\c3ccccc3CSc3ccccc32)c1 [Example 262, N-[3-(11H-10-Thia-dibenzo[a,d]cyclohepten-5-ylidenemethyl)-phenyl]-methanesulfonamide]	< 0.5	< 0.5
CS(=O)(=O)Nc1cccc(/C=C2\c3ccccc3C[S+]([O-])c3ccccc32)c1 (stereo not drawn) [Example 263, N-[3-(10-Oxo-10,11-dihydro-10λ^4-thia-dibenzo[a,d]cyclohepten-5-ylidenemethyl)-phenyl]-methanesulfonamide]	< 0.5	< 1
CS(=O)(=O)Nc1cccc(/C=C2\c3ccccc3CS(=O)(=O)c3ccccc32)c1 [Example 264, N-[3-(10,10-Dioxo-10,11-dihydro-10λ^6-thia-dibenzo[a,d]cyclohepten-5-ylidenemethyl)-phenyl]-Methanesulfonamide]	< 1	< 10
CS(=O)(=O)Nc1cccc(/C=C2\c3ccccc3COc3ccccc32)c1 [Example 267, N-[3-(6H-Dibenzo[b,e]oxepine-11-ylidenemethyl)-phenyl]-methanesulfonamide]	< 0.5	< 0.5
